Series [1] concerns PD1-ss+10aa/Gaussia Luciferase. Nature of the series: Dox-Induced PD1-ss-Gluc Assay. In kind it is cell-based. The conditions noted are these: 24 hr Dox induction; 293FRT/TO cells; read-out: 24 hr Dox Inducible PD1ssGluc 293FRT/TO: Mean IC50. The gist of the method: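 Flp-In 293 T-REx cells stably carrying a doxycycline-inducible Gaussia luciferase fused to the PD1 signal sequence plus 10 aa were plated the day before. Compound dilutions in DMSO/media containing doxycycline were then added and incubated at 37 °C, 5% CO2. Data for undefined stereochemistry refer to stereoisomer mixtures.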

Series [2] concerns TNFα-FL/Gaussia Luciferase. As to the kind of experiment: Dox Induced TNFα-FL-Gluc Assay. The format is cell-based. The conditions noted are these: for IC50: 24 hr Dox induction, 293FRT/TO cells, read-out: 24 hr Dox Inducible TNFaFLGluc 293FRT/TO: Mean IC50; for 24 hr Dox Inducible TNFaFLGluc 293FRT/TO: TNF/PD1: ratio of TNFaFLGluc IC50 to PD1ssGluc IC50. The gist of the method: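 Flp-In 293 T-REx cells stably carrying doxycycline-inducible full-length TNFα (aa 1-233) fused to Gaussia luciferase. Plated the day before, then treated with compound dilutions in doxycycline-containing medium at 37° C, 5% CO2.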

For series [3], the system named is HER3-ss+4aa/Gaussia Luciferase. Nature of the series: Dox-Induced Her3-ss-Gluc Assay. The format is cell-based. The note with it: 24 hr Dox induction; 293FRT/TO cells; read-out: 24 hr Dox Inducible Her3(ss + 4)Gluc 293FRT/TO: Mean IC50. The procedure, abridged:
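Stable Flp-In 293 T-REx cells carried a doxycycline-inducible HER3 signal sequence (+4 aa) fused to Gaussia luciferase. Cells were plated the day before the assay. Compound dilutions in DMSO/media containing doxycycline were then added, and plates were incubated at 37 °C, 5% CO2.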

Series [4] relates to IL-2-FL/Gaussia Luciferase. As to the kind of experiment: Dox Induced IL2-FL-Gluc Assay. The conditions noted are these: for IC50: 24 hr Dox induction, 293FRT/TO cells, read-out: 24 hr Dox Inducible IL2FLGluc 293FRT/TO: Mean IC50; for 24 hr Dox Inducible IL2FLGluc 293FRT/TO: IL2/PD1: ratio of IL2FLGluc IC50 to PD1ssGluc IC50. The format is cell-based. The procedure, abridged:
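Stable Flp-In 293 T-REx cells carrying doxycycline-inducible full-length IL-2 (aa 1-153) fused to Gaussia luciferase, plated the day before assay. Compound dilutions added in medium containing doxycycline, incubated at 37 °C, 5% CO2. Undefined stereocentres mean data refer to stereoisomer mixtures.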

Series [5] has as its system multiple myeloma cell line NCI-H929. Nature of the series: H929 Cell Viability Assay. The format is cell-based, human. The conditions noted are these: Homo sapiens, NCI-H929, 48 h, NCI-H929 cells, Celltiter-Glo. The procedure, abridged:
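NCI-H929 cells in RPMI 1640 with 10% FBS were treated with compound dilutions for 48 h at 37° C, 5% CO2. Viability was read by CellTiter-Glo luminescence. Undefined stereocentres denote stereoisomer mixtures.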

Series [6] has as its system multiple myeloma cell line U266B1. Nature of the series: U266 Cell Viability Assay. The conditions noted are these: Homo sapiens, U-266, 48 h, U266B1 cells, Celltiter-Glo. In kind it is cell-based, human. The gist of the method: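 U266B1 multiple myeloma cells in RPMI 1640/10% FBS were treated with compound dilutions for 48 h at 37 °C, 5% CO2. Viability was measured by CellTiter-Glo luminescence; compounds drawn without stereochemistry were tested as stereoisomer mixtures.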
For orientation: Cellular ATP, detected with luciferase, serves as a proxy for viable cell number.

The nature of series [7]: Liver Microsome Stability Assay (rat). The conditions noted are these: rat liver microsomes, with NADPH, 1.0 uM compound.
Procedure: (§1) Stability of a compound was assessed in the presence of liver microsomes from various sources—mouse, rat, monkey and human liver microsomes. 1.0 uM compound, 0.4% DMSO in 0.1 M Potassium Phosphate with 1.0 mg/mL liver microsomes, were incubated at 37° C. with or without 1 mM NADPH. The samples were quenched at 0, and 30 minutes.
The nature of series [8]: Liver Microsome Stability Assay (mouse). The note with it: mouse liver microsomes, with NADPH, 1.0 uM compound.
Procedure: as §1
A short description of series [9]: Liver Microsome Stability Assay (human). The conditions noted are these: human liver microsomes, with NADPH, 1.0 uM compound. On the technique in general: Liver microsomes are a subcellular fraction often used to study metabolism.
Procedure: as §1
The nature of series [10]: Liver Microsome Stability Assay (monkey). The conditions noted are these: monkey liver microsomes, with NADPH, 1.0 uM compound.
Procedure: as §1

For orientation: EC50 means the concentration giving half of the maximal effect. With `CC(=O)Nc1cc(F)c(N2CCC[C@@H]2c2csc(NC(=O)c3cccn3Cc3ccnc(F)c3)n2)c(F)c1` [Compound A96, (R)-N-(4-(1-(4-acetamido-2,6-difluorophenyl)pyrrolidin-2-yl)thiazol-2-yl)-1-((2-fluoropyridin-4-yl)methyl)-1H-pyrrole-2-carboxamide], the IC50 in series [1] was found to be 1.49 nM; in series [2], 40.5 nM; in [3], 4.2 nM; in [4], 4.21 nM. For the same compound, the “24 hr Dox Inducible TNFaFLGluc 293FRT/TO: TNF/PD1” value in series [2] amounted to 27.2. In [4], the “24 hr Dox Inducible IL2FLGluc 293FRT/TO: IL2/PD1” value is 2.8. Moreover, the EC50 was 34.2 nM in series [5] and > 25000 nM in series [6]. For the same compound, the “Liver Microsome Stability (Multiple Species): Rat - % Remaining after 30 min w/NADPH” value in series [7] is recorded as 1%. The “Liver Microsome Stability (Multiple Species): Mouse - % Remaining after 30 min w/NADPH” value in [8] stood at 0.28%. Also, in [9], the “Liver Microsome Stability (Multiple Species): Human - % Remaining after 30 min w/NADPH” value is reported as 1.42%. In addition, the “Liver Microsome Stability (Multiple Species): Monkey - % Remaining after 30 min w/NADPH” value in series [10] is on record as 0.12%.

With `CC(=O)N1CCC(C)(Oc2ccc(N3CCC[C@@H]3c3csc(NC(=O)c4cccn4Cc4ccnc(F)c4)n3)cc2)CC1` [Compound A97, (R)-N-(4-(1-(4-((1-acetyl-4-methylpiperidin-4-yl)oxy)phenyl)pyrrolidin-2-yl)thiazol-2-yl)-1-((2-fluoropyridin-4-yl)methyl)-1H-pyrrole-2-carboxamide], the IC50 came to 18.8 nM in [1], 162 nM in series [2], 22.1 nM in series [3] and 32.8 nM in series [4]. The “24 hr Dox Inducible TNFaFLGluc 293FRT/TO: TNF/PD1” value in series [2] amounted to 8.64. In addition, the “24 hr Dox Inducible IL2FLGluc 293FRT/TO: IL2/PD1” value in [4] amounted to 1.7. Further, the EC50 was 448 nM in [5] and > 25000 nM in series [6]. Besides, in [7], the “Liver Microsome Stability (Multiple Species): Rat - % Remaining after 30 min w/NADPH” value came to 42.4%. Also, the “Liver Microsome Stability (Multiple Species): Mouse - % Remaining after 30 min w/NADPH” value in [8] amounted to 0.22%. Also, the “Liver Microsome Stability (Multiple Species): Human - % Remaining after 30 min w/NADPH” value in [9] came to 6.01%. In [10], the “Liver Microsome Stability (Multiple Species): Monkey - % Remaining after 30 min w/NADPH” value came to 0.4%.

For the compound `CC(=O)Nc1ccc(N2CCC[C@@H]2c2csc(NC(=O)c3cccn3Cc3ccnc(F)c3)n2)c(F)c1` [Compound A98, (R)-N-(4-(1-(4-acetamido-2-fluorophenyl)pyrrolidin-2-yl)thiazol-2-yl)-1-((2-fluoropyridin-4-yl)methyl)-1H-pyrrole-2-carboxamide], the IC50 in [1] is 0.91 nM; in [2], 20.1 nM; in series [3], 2.05 nM; in series [4] it was 2.25 nM. Besides, the “24 hr Dox Inducible TNFaFLGluc 293FRT/TO: TNF/PD1” value in series [2] was found to be 22.2. For the same compound, the “24 hr Dox Inducible IL2FLGluc 293FRT/TO: IL2/PD1” value in series [4] is reported as 2.5. In addition, the values for the EC50 in series [5] and in series [6] were 22.4 nM and > 25000 nM, respectively. Besides, in [7], the “Liver Microsome Stability (Multiple Species): Rat - % Remaining after 30 min w/NADPH” value is on record as 1.18%. Further, the “Liver Microsome Stability (Multiple Species): Mouse - % Remaining after 30 min w/NADPH” value in series [8] is 1.29%. Further, in [9], the “Liver Microsome Stability (Multiple Species): Human - % Remaining after 30 min w/NADPH” value worked out at 2.43%. Also, the “Liver Microsome Stability (Multiple Species): Monkey - % Remaining after 30 min w/NADPH” value in [10] is 0.48%.

`CC(=O)Nc1c(F)cc(N2CCC[C@@H]2c2csc(NC(=O)c3cccn3Cc3ccnc(F)c3)n2)cc1F` [Compound A99, (R)-N-(4-(1-(4-acetamido-3,5-difluorophenyl)pyrrolidin-2-yl)thiazol-2-yl)-1-((2-fluoropyridin-4-yl)methyl)-1H-pyrrole-2-carboxamide]: the IC50 in series [1] is 127 nM; in series [2], 5910 nM; in [3] it was 284 nM; in series [4] it was 348 nM. The “24 hr Dox Inducible TNFaFLGluc 293FRT/TO: TNF/PD1” value in series [2] was 46.7. The “24 hr Dox Inducible IL2FLGluc 293FRT/TO: IL2/PD1” value in [4] was 2.8. The values for the EC50 in [5] and in [6] were 5300 nM and > 25000 nM, respectively. The “Liver Microsome Stability (Multiple Species): Rat - % Remaining after 30 min w/NADPH” value in series [7] is on record as 0.49%. For the same compound, the “Liver Microsome Stability (Multiple Species): Mouse - % Remaining after 30 min w/NADPH” value in [8] is 1.28%. Further, in series [9], the “Liver Microsome Stability (Multiple Species): Human - % Remaining after 30 min w/NADPH” value was determined as 1.85%. Besides, the “Liver Microsome Stability (Multiple Species): Monkey - % Remaining after 30 min w/NADPH” value in [10] was determined as 0.12%.

Regarding `CC(=O)N1CCC(Oc2ccc(N3CCC[C@@H]3c3csc(NC(=O)c4cccn4Cc4ccnc(F)c4)n3)c(F)c2)CC1` [Compound A100, (R)-N-(4-(1-(4-((1-acetylpiperidin-4-yl)oxy)-2-fluorophenyl)pyrrolidin-2-yl)thiazol-2-yl)-1-((2-fluoropyridin-4-yl)methyl)-1H-pyrrole-2-carboxamide], the IC50 was found to be 22.8 nM in series [1], 195 nM in [2], 32 nM in [3] and 34.2 nM in series [4]. Besides, the “24 hr Dox Inducible TNFaFLGluc 293FRT/TO: TNF/PD1” value in series [2] is 8.57. The “24 hr Dox Inducible IL2FLGluc 293FRT/TO: IL2/PD1” value in [4] is given as 1.5. Also, the EC50 is 442 nM in series [5] and > 25000 nM in series [6]. Further, the “Liver Microsome Stability (Multiple Species): Rat - % Remaining after 30 min w/NADPH” value in series [7] worked out at 14.8%. In addition, the “Liver Microsome Stability (Multiple Species): Mouse - % Remaining after 30 min w/NADPH” value in series [8] is given as 3.12%. Further, the “Liver Microsome Stability (Multiple Species): Human - % Remaining after 30 min w/NADPH” value in series [9] is reported as 3.16%. Also, the “Liver Microsome Stability (Multiple Species): Monkey - % Remaining after 30 min w/NADPH” value in [10] turned out to be 0.24%.

Take `NCCOc1ccc(N2CCC[C@@H]2c2csc(NC(=O)c3cccn3Cc3ccnc(F)c3)n2)cc1` [Compound A101, (R)-N-(4-(1-(4-(2-aminoethoxy)phenyl)pyrrolidin-2-yl)thiazol-2-yl)-1-((2-fluoropyridin-4-yl)methyl)-1H-pyrrole-2-carboxamide]: the IC50 in [1] amounted to 47.9 nM; in series [2] it was 379 nM; in series [3], 68.2 nM; in series [4], 94.3 nM. For the same compound, the “24 hr Dox Inducible TNFaFLGluc 293FRT/TO: TNF/PD1” value in [2] worked out at 7.92. Further, the “24 hr Dox Inducible IL2FLGluc 293FRT/TO: IL2/PD1” value in series [4] worked out at 2. In addition, the EC50 in series [5] is 1270 nM; in [6], 12800 nM. In [7], the “Liver Microsome Stability (Multiple Species): Rat - % Remaining after 30 min w/NADPH” value was 76.5%. For the same compound, in series [8], the “Liver Microsome Stability (Multiple Species): Mouse - % Remaining after 30 min w/NADPH” value was 62.7%. Besides, the “Liver Microsome Stability (Multiple Species): Human - % Remaining after 30 min w/NADPH” value in series [9] was 2.2%. For the same compound, the “Liver Microsome Stability (Multiple Species): Monkey - % Remaining after 30 min w/NADPH” value in series [10] was 14.5%.

As for `CC(=O)N1CCC(Oc2ccc(N3CCC[C@@H]3c3csc(NC(=O)c4cccn4Cc4ccnc(F)c4)n3)cc2F)CC1` [Compound A102, (R)-N-(4-(1-(4-((1-acetylpiperidin-4-yl)oxy)-3-fluorophenyl)pyrrolidin-2-yl)thiazol-2-yl)-1-((2-fluoropyridin-4-yl)methyl)-1H-pyrrole-2-carboxamide], the IC50 in [1] turned out to be 15 nM; in series [2] it was 121 nM; in [3], 16.9 nM; in series [4] it was 27.5 nM. Also, the “24 hr Dox Inducible TNFaFLGluc 293FRT/TO: TNF/PD1” value in series [2] is listed as 8.11. Also, the “24 hr Dox Inducible IL2FLGluc 293FRT/TO: IL2/PD1” value in series [4] stood at 1.8. For the same compound, the EC50 is 317 nM in [5] and > 25000 nM in series [6]. The “Liver Microsome Stability (Multiple Species): Rat - % Remaining after 30 min w/NADPH” value in series [7] is listed as 19.7%. Besides, the “Liver Microsome Stability (Multiple Species): Mouse - % Remaining after 30 min w/NADPH” value in series [8] was 7.68%. Further, the “Liver Microsome Stability (Multiple Species): Human - % Remaining after 30 min w/NADPH” value in series [9] amounted to 8.26%. The “Liver Microsome Stability (Multiple Species): Monkey - % Remaining after 30 min w/NADPH” value in [10] was found to be 1.22%.

The values are drawn from patent publication US20230286973A1, “PROTEIN SECRETION INHIBITORS” (KEZAR LIFE SCIENCES, priority 2020, published 2023).
